Measurements taken from US11066414B2, “Cot modulators and methods of use thereof” (Gilead Sciences, Inc., priority 2015, dated 2021).

tested on: TNFα; assay: Cot Monocyte TNFα Cell Based Assay; settings: Homo sapiens, Monocyte, read-out: EC50 TNF, LPS-stimulated human monocytes, TNFα

SMILES | EC50
Cc1ncccc1[C@H](Nc1cc(Cl)c2ncc(C#N)c(Nc3cccc(Cl)c3)c2c1)c1c[nH]nn1 [Example 224, (S)-8-chloro-4-((3-chlorophenyl)amino)-6-(((2-methylpyridin-3-yl)(1H-1,2,3-triazol-4-yl)methyl)amino)-quinoline-3-carbonitrile] | 2630 nM
[2H][C@](Nc1cc(Cl)c2ncc(C#N)c(NCC(C)(C)C)c2c1)(c1ccc(F)nc1)c1c[nH]nn1 [Example 135, (S)-8-chloro-6-(((6-fluoropyridin-3-yl)(1H-1,2,3-triazol-4-yl)methyl-d)amino)-4-(neopentylamino)quinoline-3-carbonitrile] | 660 nM
N#Cc1cnc2c(Cl)cc(N[C@H](c3c[nH]nn3)c3cccnc3Cl)cc2c1Nc1cnc(F)c(F)c1 [Example 161, (S)-8-chloro-6-(((2-chloropyridin-3-yl)(1H-1,2,3-triazol-4-yl)methyl)amino)-4-((5,6-difluoropyridin-3-yl)amino)quinoline-3-carbonitrile] | 1670 nM
Cc1scnc1[C@H](Nc1cc(Cl)c2ncc(C#N)c(Nc3ccc(F)c(Cl)c3)c2c1)c1cn(C2CCN(C(C)(C)C)CC2)nn1 [Example 137, (S)-6-(((1-(1-(tert-butyl)piperidin-4-yl)-1H-1,2,3-triazol-4-yl)(5-methylthiazol-4-yl)methyl)amino)-8-chloro-4-((3-chloro-4-fluorophenyl)amino)quinoline-3-carbonitrile] | 235 nM
CC(C)(C)N1CCC(n2cc([C@@H](Nc3cc(Cl)c4ncc(C#N)c(Nc5cncc(Cl)c5)c4c3)c3cccnc3)nn2)CC1 [Example 284, (S)-6-(((1-(1-(tert-butyl)piperidin-4-yl)-1H-1,2,3-triazol-4-yl)(pyridin-3-yl)methyl)amino)-8-chloro-4-((5-chloropyridin-3-yl)amino)quinoline-3-carbonitrile] | 1300 nM
Cc1ncccc1[C@H](Nc1cc(Cl)c2ncc(C#N)c(Nc3ccc(Cl)c(Cl)c3F)c2c1)c1cn(C(C)C)nn1 [Example 232, (S)-8-chloro-4-((3,4-dichloro-2-fluorophenyl)amino)-6-(((1-isopropyl-1H-1,2,3-triazol-4-yl)(2-methylpyridin-3-yl)methyl)amino)quinoline-3-carbonitrile] | 346 nM
CC[C@@H](Nc1c(C#N)cnc2c(Cl)cc(N[C@@H](c3cccnc3)c3cn([C@@H](C)CF)nn3)cc12)c1ccccc1 [Example 181, 8-chloro-6-(((S)-(1-((S)-1-fluoropropan-2-yl)-1H-1,2,3-triazol-4-yl)(pyridin-3-yl)methyl)amino)-4-(((R)-1-phenylpropyl)amino)quinoline-3-carbonitrile] | 92 nM
Cc1ccc([C@H](Nc2cc(Cl)c3ncc(C#N)c(Nc4ccc(F)c(Cl)c4)c3c2)c2cn(C3CCN(C(C)(C)C)CC3)nn2)cn1 [Example 281, (S)-6-(((1-(1-(tert-butyl)piperidin-4-yl)-1H-1,2,3-triazol-4-yl)(6-methylpyridin-3-yl)methyl)amino)-8-chloro-4-((3-chloro-4-fluorophenyl)-amino)quinoline-3-carbonitrile] | 575 nM

The next lines start with the values.

EC50 | SMILES
104 nM | Cn1ncc2c([C@H](Nc3cc(Cl)c4ncc(C#N)c(NCC(C)(C)C)c4c3)c3cn(Cc4c(F)cccc4F)nn3)cccc21 [Example 655, (S)-8-chloro-6-(((1-(2,6-difluorobenzyl)-1H-1,2,3-triazol-4-yl)(1-methyl-1H-indazol-4-yl)methyl)amino)-4-(neopentylamino)quinoline-3-carbonitrile]
59 nM | Cc1nc(F)ccc1[C@H](Nc1cc(Cl)c2ncc(C#N)c(NCC(C)(C)C)c2c1)c1cn(C2(CC(F)(F)F)CC2)nn1 [Example 753, (S)-8-chloro-6-(((6-fluoro-2-methylpyridin-3-yl)(1-(1-(2,2,2-trifluoroethyl)-cyclopropyl)-1H-1,2,3-triazol-4-yl)methyl)amino)-4-(neopentylamino)quinoline-3-carbonitrile]
768 nM | CCN1CCC(n2cc([C@@H](Nc3cc(Cl)c4ncc(C#N)c(Nc5ccc(F)c(Cl)c5)c4c3)c3ccc(Cl)s3)nn2)CC1 [Example 382, (R)-8-chloro-4-((3-chloro-4-fluoro-phenyl)amino)-6-(((5-chlorothiophen-2-yl)(1-(1-ethylpiperidin-4-yl)-1H-1,2,3-triazol-4-yl)methyl)amino)quinoline-3-carbonitrile]
230 nM | Cc1nc(F)ccc1[C@H](Nc1cc(Cl)c2ncc(C#N)c(NCC(C)(C)C)c2c1)c1cn(CC2(C(F)(F)F)CC2)nn1 [Example 751, (S)-8-chloro-6-(((6-fluoro-2-methylpyridin-3-yl)(1-((1-(trifluoromethyl)-cyclopropyl)methyl)-1H-1,2,3-triazol-4-yl)methyl)amino)-4-(neopentylamino)quinoline-3-carbonitrile]
144 nM | Cc1nc(F)ccc1[C@H](Nc1cc(C#N)c2ncc(C#N)c(N[C@@H](c3ccccc3)C3CC3)c2c1)c1cn(C2(C(F)(F)F)CC2)nn1 [Example 613, 4-(((R)-cyclopropyl(phenyl)methyl)amino)-6-(((S)-(6-fluoro-2-methylpyridin-3-yl)(1-(1-(trifluoromethyl)cyclopropyl)-1H-1,2,3-triazol-4-yl)methyl)amino)quinoline-3,8-dicarbonitrile]
806 nM | Cc1ncoc1[C@H](Nc1cc(C#N)c2ncc(C#N)c(NCC(C)(C)C)c2c1)c1cn(C2(C(F)F)CC2)nn1 [Example 657, (R)-6-(((1-(1-(difluoromethyl)-cyclopropyl)-1H-1,2,3-triazol-4-yl)(4-methyloxazol-5-yl)methyl)amino)-4-(neopentylamino)quinoline-3,8-dicarbonitrile]
130 nM | Cc1nc(Cl)ccc1[C@H](Nc1cc(Cl)c2ncc(C#N)c(NCC(C)(C)C)c2c1)c1cn(C2(C(F)(F)F)CC2)nn1 [Example 794, (S)-8-chloro-6-(((6-chloro-2-methylpyridin-3-yl)(1-(1-(trifluoromethyl)-cyclopropyl)-1H-1,2,3-triazol-4-yl)methyl)amino)-4-(neopentylamino)quinoline-3-carbonitrile]
868 nM | CC(C)n1cc([C@@H](Nc2cc(Cl)c3ncc(C#N)c(Nc4ccc(F)c(Cl)c4)c3c2)c2cncs2)nn1 [Example 303, (R)-8-chloro-4-((3-chloro-4-fluorophenyl)amino)-6-(((1-isopropyl-1H-1,2,3-triazol-4-yl)(thiazol-5-yl)methyl)amino)quinoline-3-carbonitrile]
104 nM | CC(C)(C)CNc1c(C#N)cnc2c(Cl)cc(N[C@H](c3cn(C4(C(F)(F)F)CC4)nn3)c3ccc(F)c4cnccc34)cc12 [Example 616, (S)-8-chloro-6-(((8-fluoroisoquinolin-5-yl)(1-(1-(trifluoromethyl)cyclopropyl)-1H-1,2,3-triazol-4-yl)methyl)amino)-4-(neopentylamino)quinoline-3-carbonitrile]
208 nM | CC(C)(C)CNc1c(C#N)cnc2c(Cl)cc(N[C@H](c3cn(C4(C(F)(F)F)CC4)nn3)c3cccc4c(=O)n(C(F)F)ccc34)cc12 [Example 788, (S)-8-chloro-6-(((2-(difluoromethyl)-1-oxo-1,2-dihydroisoquinolin-5-yl)(1-(1-(trifluoromethyl)cyclopropyl)-1H-1,2,3-triazol-4-yl)methyl)amino)-4-(neopentylamino)quinoline-3-carbonitrile]

same assay, conditions: Homo sapiens, Monocyte, read-out: EC50 TNF, LPS-stimulated human monocytes, TNFα TR-FRET

EC50 | SMILES
269 nM | CC(C)(C)CNc1c(C#N)cnc2c(Cl)cc(N[C@H](c3cn(C4(C(F)(F)F)CC4)nn3)c3cccc4c(Cl)nccc34)cc12 [Example 916, (S)-8-chloro-6-(((1-chloroisoquinolin-5-yl)(1-(1-(trifluoromethyl)cyclopropyl)-1H-1,2,3-triazol-4-yl)methyl)amino)-4-(neopentylamino)quinoline-3-carbonitrile]
417 nM | Cn1cccc([C@H](Nc2cc(C#N)c3ncc(C#N)c(NCC(C)(C)C)c3c2)c2cn(C3(C(F)(F)F)CC3)nn2)c1=O [Example 844, (S)-6-(((1-methyl-2-oxo-1,2-dihydropyridin-3-yl)(1-(1-(trifluoromethyl)cyclopropyl)-1H-1,2,3-triazol-4-yl)methyl)amino)-4-(neopentylamino)quinoline-3,8-dicarbonitrile]
36 nM | Cc1ncsc1[C@H](Nc1cc(C#N)c2ncc(C#N)c(NCC(C)(C)C)c2c1)c1cn(C2(C3CC3)CC2)nn1 [Example 903, (R)-6-(((1-([1,1′-bi(cyclopropan)]-1-yl)-1H-1,2,3-triazol-4-yl)(4-methylthiazol-5-yl)methyl)amino)-4-(neopentylamino)quinoline-3,8-dicarbonitrile]

same assay, conditions: read-out: EC50 TNF; LPS-stimulated human monocytes, TNFα

SMILES | EC50
CC(C)(C)N1CCC(n2cc([C@@H](Nc3cc(Cl)c4ncc(C#N)c(Nc5cnc(F)c(F)c5)c4c3)c3cccnc3)nn2)CC1 [Example 208] | 465 nM
Cc1cc(Cl)ncc1[C@H](Nc1cc(Cl)c2ncc(C#N)c(Nc3ccc(F)c(Cl)c3)c2c1)c1cn(C2CCN(C(C)(C)C)CC2)nn1 [Example 289] | 837 nM
CC(C)(C)N1CCC(n2cc([C@@H](Nc3cc(Cl)c4ncc(C#N)c(Nc5ccc(F)c(Cl)c5)c4c3)c3ccc4ncsc4c3)nn2)CC1 [Example 63, (S)-6-((benzo[d]thiazol-6-yl(1-(1-(tert-butyl)pipcridin-4-yl)-1H-1,2,3-triazol-4-yl)methyl)amino)-8-chloro-4-((3-chloro-4-fluorophenyl)amino)quinoline-3-carbonitrile] | 257 nM

The next lines start with the values.

EC50 | SMILES
246 nM | Cn1nccc1[C@H](Nc1cc(Cl)c2ncc(C#N)c(NCC(C)(C)C)c2c1)c1cn(C2(C(F)(F)F)CC2)nn1 [Example 666, (S)-8-chloro-6-(((1-methyl-1H-pyrazol-S-yl)(1-(1-(trifluoromethyl)cyclopropyl)-1H-1,2,3-triazol-4-yl)methyl)amino)-4-(neopentylamino)quinoline-3-carbonitrile]
365 nM | Cc1nc(F)ccc1[C@H](Nc1cc(Cl)c2ncc(C#N)c(NCC(C)(C)C)c2c1)c1cn(CC(C)(C)C(F)(F)F)nn1 [Example 755]
